The results in this text go back to patent publication US7361743B2 (Pfizer Inc, priority 2004, dated 2008).

For one assay, the system named is Haemophilus influenzae. In words: Susceptibility testing, NCCLS microdilution MIC. The assay is classed as cell-based. Particulars: Haemophilus influenzae, ATCC31517; H. influenzae ATCC 31517; Example A′; read-out: MIC H. influenzae. Background: Dilution methods test growth across graded concentrations, often in twofold steps.
In another assay the test system is Enterococcus faecalis. In words: Susceptibility testing, NCCLS microdilution MIC. The assay is classed as cell-based. To be noted: Enterococcus faecalis, ATCC29212; E. faecalis ATCC 29212; Example A′; read-out: MIC E. faecalis.
Another assay deals with Bacteroides fragilis. In words: Susceptibility testing, NCCLS microdilution MIC (anaerobe). To be noted: Bacteroides fragilis, ATCC25285; B. fragilis ATCC 25285; Example A′; read-out: MIC B. fragilis. It is filed as cell-based.
In a further assay the test system is Staphylococcus aureus. As to the kind of experiment: Susceptibility testing, NCCLS microdilution MIC. The assay is classed as cell-based. To be noted: ATCC25923, S. aureus ATCC 25923, Example A′, read-out: MIC S. aureus.
Assay [1] concerns E. coli transcription/translation (bacterial protein synthesis, E. coli S30 extract). As to the kind of experiment: In vitro inhibition of E. coli transcription and translation assay (TT), cell-free. It is filed as biochemical. To be noted: for IC50: cell-free E. coli S30 extract; for In vitro inhibition of E. coli transcription and translation compared with literature azepine compound VIII(18): cell-free TT assay, comparison in words. Here is the method:
Inhibition of bacterial protein synthesis was assayed in a cell-free E. coli transcription/translation assay.
Stock solutions of compounds were prepared at 10 mg/mL in DMSO. The assay contained less or equal to 1% (v/v) final concentration of DMSO. Three-fold serial dilutions were prepared in assay buffer at 6-fold final concentration in 96 well microtiter plate.
All vials, tubes and microtiter plates are RNase free. The Mix was freshly prepared with 10 μl H2O, 10 μl AA-M, 10 μl AA-L, 80 μl Premix and 50 μl ES30 extract. The assay was performed in a 96-well plate. Five microliters of compounds at various concentrations (6-fold final assay concentration) were preincubated with 20 μl of the mix for 5 min at room temperature. The reaction started with addition of 5 μl of plasmid (˜0.1 mg/mL pGEMBGAL), and kept at 37° C. for 1 h followed by the addition of 150 μl of OPNG solution (4 mg/mL OPNG in 0.1M NaPi, pH 7.5, 1 mM MgCl2 and 2 mM DTT). 150 μl of the reaction was transferred to a ½-area plate and increase in absorption at OD420 nm was monitored for 10 min using a Spectramax plate reader (Molecular Devices). The slope of absorption change over time is corresponding to the pathway activity.
The E. coli S30 Extract for circular DNA kit was purchased from Promega. Original plasmid pGEMBGAL was obtained from Promega and amplified via Maxiprep in house. 2-Nitrophenyl β-D-galactopyranoside was obtained from Sigma. Clindamycin HCl (USP) was purchased from Spectrum.
The inhibition are expressed as percent of control activity (without inhibitor) which is calculated according to equation (1): Inhibition %=(compound slope-blank slope)/(control slope-blank slope)*100 (1)
All IC50s were determined by fitting the experimental data to equation (2) using software DeltaGraph (DeltaPoint Inc.): Y=Y0/(1+(X/IC50)[…])+c (2)
Where Y: activity at given inhibitor concentration; Y0: activity without inhibitor; X: inhibitor concentration; d: slope; c: constant.
Lincosamides inhibit bacterial growth through binding to the bacterial 50S ribosome, thus inhibiting peptide bond formation. The transcription/translation assay provides a screening tool to measure inhibition of bacterial protein synthesis pathway at the target level without the complication of differences in membrane permeability.

Converted amounts (≈) assume the structure as drawn. Some results are limits rather than exact numbers.

Broadly, the IC50 is the concentration that gives 50% inhibition. The low end stands for higher potency, the high end for lower potency.

For the molecule `CS[C@H]1O[C@H]([C@H](NC(=O)[C@@H]2CC[C@H](CCC(F)F)CCN2)[C@H](C)Cl)[C@H](O)[C@H](O)[C@H]1O` [Example 10′, 5-(3,3-Difluoro-propyl)-azepane-2-carboxylic acid [2-chloro-1-(3,4,5-trihydroxy-6-methylsulfanyl-tetrahydro-pyran-2-yl)-propyl]-amide], the MIC with Haemophilus influenzae came to 0.5 µg/mL (≈ 1.05 µM); with Enterococcus faecalis, 0.125 µg/mL (≈ 0.263 µM); with Bacteroides fragilis it was 1 µg/mL (≈ 2.11 µM); in the assay with Staphylococcus aureus, 0.06 µg/mL (≈ 0.126 µM). The IC50 in assay [1] was 530 nM. Also, the “In vitro inhibition of E. coli transcription and translation compared with literature azepine compound VIII(18)” value in assay [1] is on record as “markedly superior”.
On to `COCc1cn(CCC[C@@H]2CCN[C@H](C(=O)N[C@@H]([C@H]3O[C@H](SC)[C@H](O)[C@@H](O)[C@H]3O)[C@H](C)Cl)CC2)nn1` [Example 16′, 5-[3-(4-Methoxymethyl-[1,2,3]triazol-1-yl)-propyl]-azepane-2-carboxylic acid [2-chloro-1-(3,4,5-trihydroxy-6-methylsulfanyl-tetrahydro-pyran-2-yl)-propyl]-amide], for which the MIC in the assay with Haemophilus influenzae was 2 µg/mL (≈ 3.64 µM); in the assay with Enterococcus faecalis, above 8 µg/mL; in the assay with Bacteroides fragilis, above 8 µg/mL; with Staphylococcus aureus it was 2 µg/mL (≈ 3.64 µM). In assay [1], this molecule gave an IC50 of 440 nM. Also, the “In vitro inhibition of E. coli transcription and translation compared with literature azepine compound VIII(18)” value in assay [1] is “markedly superior”.
For `CS[C@H]1O[C@H]([C@H](NC(=O)[C@@H]2CC[C@H](CCCn3cc(C(C)C)nn3)CCN2)[C@H](C)Cl)[C@H](O)[C@H](O)[C@H]1O` [Example 18′, 5-[3-(4-(2-Propyl)-[1,2,3]triazol-1-yl)-propyl]-azepane-2-carboxylic acid [2-chloro-1-(3,4,5-trihydroxy-6-methylsulfanyl-tetrahydro-pyran-2-yl)-propyl]-amide], the MIC is 4 µg/mL (≈ 7.3 µM) in the assay on Haemophilus influenzae, 4 µg/mL (≈ 7.3 µM) with Enterococcus faecalis, above 8 µg/mL in the assay with Bacteroides fragilis and 1 µg/mL (≈ 1.82 µM) with Staphylococcus aureus. In assay [1], the IC50 turned out to be 440 nM. For the same molecule, the “In vitro inhibition of E. coli transcription and translation compared with literature azepine compound VIII(18)” value in assay [1] was “markedly superior”.
In the case of `CS[C@H]1O[C@H]([C@H](NC(=O)[C@@H]2CC[C@H](CCCC(F)F)CCN2)[C@H](C)Cl)[C@H](O)[C@H](O)[C@H]1O` [Example 11′, 5-(4,4-Difluoro-butyl)-azepane-2-carboxylic acid [2-chloro-1-(3,4,5-trihydroxy-6-methylsulfanyl-tetrahydro-pyran-2-yl)-propyl]-amide], the MIC was 0.25 µg/mL (≈ 0.511 µM) with Haemophilus influenzae, 0.06 µg/mL (≈ 0.123 µM) with Enterococcus faecalis, 1 µg/mL (≈ 2.04 µM) in the assay on Bacteroides fragilis and 0.06 µg/mL (≈ 0.123 µM) with Staphylococcus aureus. Moreover, in assay [1], 250 nM corresponded to half-maximal inhibition (IC50). Moreover, the “In vitro inhibition of E. coli transcription and translation compared with literature azepine compound VIII(18)” value in assay [1] was “markedly superior”.
In the case of `CS[C@H]1O[C@H]([C@H](NC(=O)[C@@H]2CC[C@H](CCCCOc3cccnc3)CCN2)[C@H](C)Cl)[C@H](O)[C@H](O)[C@H]1O` [Example 14′, 5-[4-(Pyridin-3-yloxy)-butyl]-azepane-2-carboxylic acid [2-chloro-1-(3,4,5-trihydroxy-6-methylsulfanyl-tetrahydro-pyran-2-yl)-propyl]-amide], the MIC with Haemophilus influenzae worked out at 1 µg/mL (≈ 1.83 µM); in the assay on Enterococcus faecalis, 0.5 µg/mL (≈ 0.916 µM); with Bacteroides fragilis, 8 µg/mL (≈ 14.6 µM); in the assay with Staphylococcus aureus, 0.125 µg/mL (≈ 0.229 µM). Also, the IC50 in assay [1] was 200 nM. Further, the “In vitro inhibition of E. coli transcription and translation compared with literature azepine compound VIII(18)” value in assay [1] is “markedly superior”.
